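48-hour exposure; five concentrations; linearly interpolated endpoints. GI50 is the concentration that inhibits growth by half.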 The source made the active and inactive calls. Cut-off read from the data, not from the text of the source: active = GI50 up to about 1.1 µM and inactive = higher.

From ChEMBL document CHEMBL1201862, “PubChem BioAssay data set” (2004) come the findings set out here.

Among the test systems are HCC 2998; 786-0; A498; BT-549; COLO 205; MDA-MB-231; CCRF-CEM; OVCAR-4; NCI/ADR-RES; TK-10; MDA-N; LOX IMVI; SR; U-251; HT-29; IGROV-1; SK-MEL-5; HCT-116; CAKI-1; EKVX.
What all share (assay): NCI anticancer screen, dose series, 48 h

`O=C1NC2c3c(I)sc(I)c3C(=O)C2O1` (stereo not drawn): the GI50 with HCC 2998 is 3.95 µM (inactive); in the assay with 786-0, 7.13 µM (inactive); in the assay with A498, 14.3 µM (inactive); in the assay with BT-549 it was 5.53 µM (inactive); with COLO 205, 2.67 µM (inactive); in the assay with MDA-MB-231, 4.49 µM (inactive). Also, the GI50 is 1.56 µM (inactive) in the assay on CCRF-CEM; 9.35 µM (inactive) in the assay on OVCAR-4; 6.84 µM (inactive) with NCI/ADR-RES; 10.9 µM (inactive) in the assay with TK-10; 2.96 µM (inactive) with MDA-N; 2.16 µM (inactive) in the assay on LOX IMVI. For the same compound, the GI50 is 2.96 µM (inactive) with SR; 6.78 µM (inactive) with U-251; 1.7 µM (inactive) in the assay on HT-29; 2.93 µM (inactive) in the assay on IGROV-1; 2.46 µM (inactive) in the assay with SK-MEL-5; 2.58 µM (inactive) with HCT-116. For the same compound, the GI50 in the assay on CAKI-1 is 3.52 µM (inactive); in the assay with EKVX, 5.52 µM (inactive).

On to `Cc1ccc2c(c1)S(=O)(=O)c1ccc3ccccc3c1N2`, for which the GI50 in the assay with HCC 2998, with 786-0, with A498, in the assay on BT-549, with COLO 205 and in the assay with MDA-MB-231 was > 100 µM (inactive) throughout. Moreover, the GI50 in the assay with CCRF-CEM, in the assay with OVCAR-4, with NCI/ADR-RES, in the assay with TK-10, in the assay with MDA-N and with LOX IMVI was > 100 µM (inactive) each time. Moreover, the GI50 in the assay on SR is 15.4 µM (inactive); with U-251, > 100 µM (inactive); with HT-29, > 100 µM (inactive); in the assay with IGROV-1 it was > 100 µM (inactive); with SK-MEL-5, > 100 µM (inactive); in the assay with HCT-116, > 100 µM (inactive). Moreover, the GI50 with CAKI-1 and in the assay on EKVX was > 100 µM (inactive) each time.

Consider `CCOC(=O)/C(C(N)=O)=C(/O)c1cnccn1`, for which the GI50 in the assay on HCC 2998, in the assay on 786-0, in the assay on A498, in the assay with BT-549, in the assay on COLO 205 and with MDA-MB-231 was > 100 µM (inactive) in each case. The GI50 in the assay with CCRF-CEM, in the assay with OVCAR-4, in the assay with NCI/ADR-RES, in the assay with MDA-N, in the assay with LOX IMVI and in the assay on SR was > 100 µM (inactive) throughout. In addition, the GI50 with U-251, in the assay on HT-29, in the assay on IGROV-1, with SK-MEL-5, in the assay on HCT-116 and with CAKI-1 was > 100 µM (inactive) throughout. Also, the GI50 in the assay on EKVX is > 100 µM (inactive).

Regarding `C=CCC1C(O[Si](C)(C)C(C)(C)C)C(CO[Si](C)(C)C(C)(C)C)OC1n1ccc(=O)[nH]c1=O` (stereo not drawn), the GI50 with HCC 2998 was 1.63 µM (inactive); in the assay on 786-0, 1.15 µM (inactive); in the assay on A498 it was 2.03 µM (inactive); in the assay on BT-549, 1.93 µM (inactive); in the assay with COLO 205, 1.63 µM (inactive); with MDA-MB-231, 1.79 µM (inactive). Further, the GI50 with CCRF-CEM is 0.548 µM (active); in the assay on OVCAR-4, 1.15 µM (inactive); in the assay on NCI/ADR-RES it was 1.66 µM (inactive); in the assay with MDA-N, 1.51 µM (inactive); with LOX IMVI, 0.705 µM (active); with SR, 2.07 µM (inactive). Besides, the GI50 in the assay on U-251 was 2.2 µM (inactive); with HT-29, 1.44 µM (inactive); in the assay with IGROV-1, 1.41 µM (inactive); in the assay on SK-MEL-5 it was 1.51 µM (inactive); in the assay with HCT-116 it was 1.06 µM (active); in the assay with CAKI-1 it was 1.63 µM (inactive). Also, the GI50 with EKVX was 1.41 µM (inactive).

As to `COC(=O)/C=C\C(C#N)(C#N)/N=C/c1ccc(OC)cc1`, the GI50 is 20.6 µM (inactive) with HCC 2998; 1.99 µM (inactive) in the assay on 786-0; 18.5 µM (inactive) in the assay on A498; 5.04 µM (inactive) in the assay with BT-549; 1.65 µM (inactive) with COLO 205; 18 µM (inactive) in the assay on MDA-MB-231. For the same compound, the GI50 in the assay on CCRF-CEM was 0.162 µM (active); in the assay on OVCAR-4, 1.92 µM (inactive); in the assay on NCI/ADR-RES, 2.73 µM (inactive); with TK-10, 2.63 µM (inactive); in the assay with MDA-N, 4.75 µM (inactive); in the assay on LOX IMVI, 3.12 µM (inactive). Besides, the GI50 with SR is 0.681 µM (active); in the assay on U-251 it was 17.9 µM (inactive); in the assay with HT-29, 5.31 µM (inactive); in the assay on IGROV-1 it was 15 µM (inactive); in the assay with SK-MEL-5 it was 17.8 µM (inactive); in the assay on HCT-116 it was 1.84 µM (inactive). Besides, the GI50 in the assay with CAKI-1 was 2.08 µM (inactive); in the assay with EKVX, 16.6 µM (inactive).

`COCOC1C=CCCCC2=CC(C)=C(CC1)O2` (stereo not drawn): the GI50 in the assay on HCC 2998, with 786-0, in the assay on A498, with BT-549, in the assay on COLO 205 and in the assay on MDA-MB-231 was > 100 µM (inactive) throughout. In addition, the GI50 in the assay on CCRF-CEM was 74.6 µM (inactive); in the assay with OVCAR-4, > 100 µM (inactive); in the assay with NCI/ADR-RES, > 100 µM (inactive); in the assay on TK-10 it was > 100 µM (inactive); in the assay on MDA-N it was > 100 µM (inactive); in the assay with LOX IMVI, > 100 µM (inactive). Besides, the GI50 with SR is 61.7 µM (inactive); in the assay on U-251, > 100 µM (inactive); in the assay with HT-29, 99.1 µM (inactive); in the assay with IGROV-1 it was > 100 µM (inactive); with SK-MEL-5, > 100 µM (inactive); in the assay with HCT-116, > 100 µM (inactive). Further, the GI50 in the assay on CAKI-1 and in the assay on EKVX was > 100 µM (inactive) throughout.

Turning to `O=C1CC(c2n[nH]c3ccccc23)C(=O)N1c1ccccc1` (stereo not drawn), the GI50 was > 100 µM (inactive) in the assay on HCC 2998; > 100 µM (inactive) with 786-0; > 100 µM (inactive) in the assay on A498; > 100 µM (inactive) with BT-549; > 93.8 µM (inactive) with COLO 205; > 100 µM (inactive) in the assay with MDA-MB-231. The GI50 in the assay on CCRF-CEM is 29.2 µM (inactive); in the assay on OVCAR-4 it was > 100 µM (inactive); with NCI/ADR-RES it was > 100 µM (inactive); in the assay with TK-10 it was > 100 µM (inactive); in the assay with MDA-N, > 100 µM (inactive); in the assay on LOX IMVI, > 100 µM (inactive). The GI50 was 36.5 µM (inactive) in the assay with SR; > 100 µM (inactive) in the assay with U-251; > 100 µM (inactive) in the assay on HT-29; > 100 µM (inactive) in the assay with IGROV-1; > 100 µM (inactive) in the assay on SK-MEL-5; > 100 µM (inactive) in the assay with HCT-116. Besides, the GI50 with CAKI-1 and with EKVX was > 100 µM (inactive) throughout.

As to `NC(=O)CC(N)C(N)=O` (stereo not drawn), the GI50 in the assay with 786-0, in the assay with A498, in the assay with BT-549, in the assay on COLO 205, in the assay on MDA-MB-231 and in the assay on CCRF-CEM was > 100 µM (inactive) each time. Besides, the GI50 in the assay with OVCAR-4, in the assay on NCI/ADR-RES, with TK-10, in the assay with MDA-N, with LOX IMVI and in the assay with SR was > 100 µM (inactive) each time. Further, the GI50 in the assay with U-251, in the assay on IGROV-1, in the assay on SK-MEL-5, with HCT-116 and in the assay with CAKI-1 was > 100 µM (inactive) throughout.

As to `COc1cc2c(cc1OC)C(CCN)=NCC2`, the GI50 was 5.08 µM (inactive) in the assay on 786-0; 26.9 µM (inactive) in the assay with A498; 19.1 µM (inactive) in the assay on BT-549; 14.3 µM (inactive) with COLO 205; 16.6 µM (inactive) in the assay with MDA-MB-231; 2.19 µM (inactive) in the assay with CCRF-CEM. For the same compound, the GI50 with OVCAR-4 was 21.2 µM (inactive); in the assay on NCI/ADR-RES, 27.4 µM (inactive); with TK-10, 10.2 µM (inactive); in the assay on MDA-N, 15.8 µM (inactive); in the assay with LOX IMVI, 18.8 µM (inactive); in the assay on SR it was 4.58 µM (inactive). Further, the GI50 was 16.4 µM (inactive) with U-251; 20.2 µM (inactive) in the assay on HT-29; 22.6 µM (inactive) in the assay on IGROV-1; 20 µM (inactive) with SK-MEL-5; 18.4 µM (inactive) in the assay with HCT-116; 12.6 µM (inactive) in the assay with CAKI-1. In addition, the GI50 in the assay on EKVX is 23.1 µM (inactive).

With `COc1cc(/C=C/C(=O)N[C@@H]2C(=O)N3[C@@H]2SC(C)(C)[C@@H]3C(=O)O)ccc1O`, the GI50 with HCC 2998, in the assay with 786-0, in the assay on A498, with BT-549, with COLO 205 and in the assay with MDA-MB-231 was > 100 µM (inactive) throughout. For the same compound, the GI50 in the assay with CCRF-CEM was > 100 µM (inactive); with OVCAR-4 it was > 100 µM (inactive); in the assay with NCI/ADR-RES, > 100 µM (inactive); with TK-10, > 100 µM (inactive); with MDA-N, > 100 µM (inactive); in the assay with LOX IMVI, 75 µM (inactive). The GI50 in the assay on SR, with U-251, in the assay with HT-29, in the assay on SK-MEL-5, in the assay on HCT-116 and in the assay on CAKI-1 was > 100 µM (inactive) in each case. The GI50 with EKVX is > 100 µM (inactive).
